Values quoted from earlier work in PubChem BioAssay AID1259409 (Chemical Carcinogenesis Research Information System (CCRIS), 2018).

Tested on: rodent chemically induced tumor inhibition, incidence and multiplicity
Assay: CCRIS tumor inhibitor studies
Settings: Promoter: NONE USED

Which “tumour outcome (control, treated, inhibition, significance)” value (Carcinogen: N-ETHYL-N-NITROSOUREA, 759-73-9, Dose [Inhibitor]: 0, 20 MG/L IN DRINKING WATER FOR 12 MO ADMINISTERED TO OFFSPRING OF CARCINOGEN-TREATED MOTHERS (STUDY DURATION: 12 MO), Route [Inhibitor]: ORAL, Species: RAT, Strain/Sex: ALBINO/MALE, FEMALE, Target Tissue: Type of Lesion: PERIPHERAL NERVES: TUMOR, Dose [Carcinogen]: 75 MG/KG BW ADMINISTERED INTRAPERITONEALLY TO MOTHERS 21 D POST CONCEPTION) does the source give for `COc1ccc2c(c1)c(CC(=O)O)c(C)n2C(=O)c1ccc(Cl)cc1` here?
Its value is 13/42 (31%), 3/25 (12%), 61%, not significant.

What about the “tumour outcome (control, treated, inhibition, significance)” value (Carcinogen: N-ETHYL-N-NITROSOUREA, 759-73-9, Dose [Inhibitor]: 0, 20 MG/L IN DRINKING WATER FOR 12 MO ADMINISTERED TO OFFSPRING OF CARCINOGEN-TREATED MOTHERS (STUDY DURATION: 12 MO), Route [Inhibitor]: ORAL, Species: RAT, Strain/Sex: ALBINO/MALE, FEMALE, Target Tissue: Type of Lesion: SPINAL CHORD: TUMOR, Dose [Carcinogen]: 75 MG/KG BW ADMINISTERED INTRAPERITONEALLY TO MOTHERS 21 D POST CONCEPTION) of the same molecule?
The value was 11/42 (26%), 4/25 (16%), 38%, not significant.

And the “tumour outcome (control, treated, inhibition, significance)” value (Carcinogen: N-METHYL-N-NITROSOUREA, 684-93-5, Dose [Inhibitor]: 2.5 MG/KG BW FOR 10 WK STARTING 21 WK POST CARCINOGEN TREATMENT (STUDY DURATION: 35 WK), Route [Inhibitor]: INTRAPERITONEAL, Species: RAT, Strain/Sex: CD/F344/FEMALE, Target Tissue: Type of Lesion: COLON: ADENOCARCINOMA, Dose [Carcinogen]: 2 MG 3/WK FOR 5 WK)?
The value was 6/9 (67%), 6/9 (67%), 0%, not significant.

And the “tumour outcome (control, treated, inhibition, significance)” value (Carcinogen: N-METHYL-N-NITROSOUREA, 684-93-5, Dose [Inhibitor]: 2.5 MG/KG BW FOR 15 WK STARTING 5 WK POST CARCINOGEN TREATMENT (STUDY DURATION: 26 WK), Route [Inhibitor]: INTRAPERITONEAL, Species: RAT, Strain/Sex: CD/F344/FEMALE, Target Tissue: Type of Lesion: COLON: ADENOCARCINOMA, Dose [Carcinogen]: 2 MG 3/WK FOR 5 WK)?
The value was 20/30 (67%), 9/29 (31%), 54%, p<0.02.

And the “tumour outcome (control, treated, inhibition, significance)” value (Carcinogen: N-METHYL-N-NITROSOUREA, 684-93-5, Dose [Inhibitor]: 2.5 MG/KG BW FOR 15 WK STARTING 5 WK POST CARCINOGEN TREATMENT FOLLOWED BY 10 WK CESSATION OF TREATMENT (STUDY DURATION:, Route [Inhibitor]: INTRAPERITONEAL, Species: RAT, Strain/Sex: CD/F344/FEMALE, Target Tissue: Type of Lesion: COLON: ADENOCARCINOMA, Dose [Carcinogen]: 2 MG 3/WK FOR 5 WK)?
The value was 6/9 (67%), 7/9 (78%), -16%, not significant.

What about the “tumour outcome (control, treated, inhibition, significance)” value (Carcinogen: N-METHYL-N-NITROSOUREA, 684-93-5, Dose [Inhibitor]: 10 UG/ML TAP WATER FOR 15 WK STARTING 10 WK AFTER THE START OF CARCINOGEN TREATMENT AND CONTINUING THROUGH END OF STUDY, Route [Inhibitor]: ORAL, Species: RAT, Strain/Sex: CD-FISCHER/FEMALE, Target Tissue: Type of Lesion: LARGE INTESTINE: ADENOCARCINOMA, Dose [Carcinogen]: 2 MG 3/WK FOR 5 WK) of the same molecule?
Its value is 18/27 (67%), 4/28 (14%), 79%, p<0.01.

And the “tumour outcome (control, treated, inhibition, significance)” value (Carcinogen: N-METHYL-N-NITROSOUREA, 684-93-5, Dose [Inhibitor]: 20 UG/ML TAP WATER FOR 15 WK STARTING 10 WK AFTER THE START OF CARCINOGEN TREATMENT AND CONTINUING THROUGH END OF STUDY, Route [Inhibitor]: ORAL, Species: RAT, Strain/Sex: CD-FISCHER/FEMALE, Target Tissue: Type of Lesion: LARGE INTESTINE: ADENOCARCINOMA, Dose [Carcinogen]: 2 MG 3/WK FOR 5 WK)?
Its value is 18/27 (67%), 4/24 (17%), 75%, p<0.01.

And the “tumour outcome (control, treated, inhibition, significance)” value (Carcinogen: N-NITROSOMETHYLUREA, 684-93-5, Dose [Inhibitor]: 0, 0.001% IN DRINKING WATER FOR STUDY DAYS 1 TO 8 (STUDY DURATION: 31 WK), Route [Inhibitor]: ORAL, Species: RAT, Strain/Sex: SPRAGUE-DAWLEY/MALE, Target Tissue: Type of Lesion: LARGE BOWEL: ADENOCARCINOMA, Dose [Carcinogen]: 4 MG ON D 3, 5 AND 7 OF STUDY)?
Its value is 26/29 (90%), 20/30 (67%), 26%, not significant.

And the “tumour outcome (control, treated, inhibition, significance)” value (Carcinogen: UVB IRRADIATION, Dose [Inhibitor]: 700 NMOL IN 0.1 ML ACETONE 5/WK FOR 4 WK IMMEDIATELY AFTER EACH EXPOSURE TO UVB FOLLOWED BY 48 WK OBSERVATION PERIOD (ST, Route [Inhibitor]: DERMAL, Species: MOUSE, Strain/Sex: SKH/HRL/FEMALE, Target Tissue: Type of Lesion: SKIN: TUMOR, Dose [Carcinogen]: 0.3 KJ/SQM ON FIRST DAY, 0.6 KJ/SQM ON SECOND DAY THEN 0.9 KJ/SQM UVB ADMINISTERED 5 D/WK FOR 4 WK)?
The value was 8/27 (30%), 6/26 (23%), 23%, not significant.

And the “tumour outcome (control, treated, inhibition, significance)” value (Dose [Inhibitor]: 0, 0.005% IN DIET FOR DURATION OF STUDY BEGINNING SIMULTANEOUSLY WITH CARCINOGEN TREATMENT (STUDY DURATION: 40 WK), Route [Inhibitor]: ORAL, Species: RAT, Strain/Sex: WISTAR/MALE, Target Tissue: Type of Lesion: COLON: TUMOR, Dose [Carcinogen]: 1 ML OF 0.1% DISTILLED WATER SOLUTION 1/D FOR 14 D)?
The value was 27/33 (82%), 5/18 (28%), 66%, p<0.01.
